{"source": "PubChem BioAssay AID1963439", "about": "(Molecular Pharmacology Branch, DTP, NCI, 2024)", "tested_on": "NCI-H196 complex spheroids with HUVEC/MSC, growth % T/C", "assay": "Anticancer human tumor NCI-H196 cell line growth inhibition [Asc];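 note: spheroids exposed to compound for 7 days before measurement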;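 for viability, T/C: 100% = DMSO vehicle control wells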", "conditions": "for viability, T/C: stronger effect = lower value", "procedure,_shortened": "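Complex spheroids combining tumor cells with HUVEC endothelial cells and human MSCs, at 37 degrees C, 5% CO2; agents tested alone or combined, half-log dilutions from at or near clinical Cmax, or 10 microM if Cmax unknown.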", "key": {"[1]": {"conditions": "curve of first compound, second compound 0.1 µM"}, "[2]": {"conditions": "curve of first compound, second compound 0.316 µM"}, "[3]": {"conditions": "curve of first compound, second compound 1 µM"}, "[4]": {"conditions": "second compound 0.1 µM, first compound 0.00316 µM"}, "[5]": {"conditions": "second compound 0.1 µM, first compound 0.01 µM"}, "[6]": {"conditions": "second compound 0.1 µM, first compound 0.0316 µM"}, "[7]": {"conditions": "second compound 0.1 µM, first compound 0.1 µM"}, "[8]": {"conditions": "second compound 0.316 µM, first compound 0.00316 µM"}, "[9]": {"conditions": "second compound 0.316 µM, first compound 0.01 µM"}, "[10]": {"conditions": "second compound 0.316 µM, first compound 0.0316 µM"}, "[11]": {"conditions": "second compound 0.316 µM, first compound 0.1 µM"}, "[12]": {"conditions": "second compound 1 µM, first compound 0.00316 µM"}, "[13]": {"conditions": "second compound 1 µM, first compound 0.01 µM"}, "[14]": {"conditions": "second compound 1 µM, first compound 0.0316 µM"}, "[15]": {"conditions": "second compound 1 µM, first compound 0.1 µM"}}, "note": "Several values for one entry are separate records, joined by “and”; a condition that tells them apart may be missing. Equal values may be shown once.", "data": [{"smiles": "Cn1ncnc1[C@H]1c2n[nH]c(=O)c3cc(F)cc(c23)N[C@@H]1c1ccc(F)cc1", "note": "+ CNC(C)C(=O)NC1CN(S(=O)(=O)c2cccc(S(=O)(=O)N3CCC4CCC(C(=O)NC(c5ccccc5)c5ccccc5)N4C(=O)C(NC(=O)C(C)NC)C3)c2)CCC2CCC(C(=O)NC(c3ccccc3)c3ccccc3)N2C1=O", "values": [{"measurement": "IC50", "setting": "curve of first compound, second compound 0.01 µM", "value": "< 0.000316", "unit": "µM"}, {"measurement": "IC50", "setting": "curve of first compound, second compound 0.0316 µM", "value": "< 0.000316", "unit": "µM"}, {"measurement": "IC50", "setting": "[1]", "value": "< 0.000316", "unit": "µM"}, {"measurement": "IC50", "setting": "[2]", "value": "< 0.000316", "unit": "µM"}, {"measurement": "IC50", "setting": "[3]", "value": "< 0.000316", "unit": "µM"}, {"measurement": "viability, T/C", "setting": "second compound 0.01 µM, first compound 0.000316 µM", "value": 5.99, "unit": "%"}, {"measurement": "viability, T/C", "setting": "second compound 0.01 µM, first compound 0.001 µM", "value": 6.41, "unit": "%"}, {"measurement": "viability, T/C", "setting": "second compound 0.01 µM, first compound 0.00316 µM", "value": 5.39, "unit": "%"}, {"measurement": "viability, T/C", "setting": "second compound 0.01 µM, first compound 0.01 µM", "value": 5.55, "unit": "%"}, {"measurement": "viability, T/C", "setting": "second compound 0.01 µM, first compound 0.0316 µM", "value": 9.54, "unit": "%"}, {"measurement": "viability, T/C", "setting": "second compound 0.01 µM, first compound 0.1 µM", "value": 6.44, "unit": "%"}, {"measurement": "viability, T/C", "setting": "second compound 0.0316 µM, first compound 0.000316 µM", "value": 7.02, "unit": "%"}, {"measurement": "viability, T/C", "setting": "second compound 0.0316 µM, first compound 0.001 µM", "value": 6.75, "unit": "%"}, {"measurement": "viability, T/C", "setting": "second compound 0.0316 µM, first compound 0.00316 µM", "value": 5.6, "unit": "%"}, {"measurement": "viability, T/C", "setting": "second compound 0.0316 µM, first compound 0.01 µM", "value": 4.53, "unit": "%"}, {"measurement": "viability, T/C", "setting": "second compound 0.0316 µM, first compound 0.0316 µM", "value": 3.1, "unit": "%"}, {"measurement": "viability, T/C", "setting": "second compound 0.0316 µM, first compound 0.1 µM", "value": 4.55, "unit": "%"}, {"measurement": "viability, T/C", "setting": "second compound 0.1 µM, first compound 0.000316 µM", "value": 4.37, "unit": "%"}, {"measurement": "viability, T/C", "setting": "second compound 0.1 µM, first compound 0.001 µM", "value": 3.32, "unit": "%"}, {"measurement": "viability, T/C", "setting": "[4]", "value": 4.82, "unit": "%"}, {"measurement": "viability, T/C", "setting": "[5]", "value": 3.9, "unit": "%"}, {"measurement": "viability, T/C", "setting": "[6]", "value": 2.51, "unit": "%"}, {"measurement": "viability, T/C", "setting": "[7]", "value": 3.65, "unit": "%"}, {"measurement": "viability, T/C", "setting": "second compound 0.316 µM, first compound 0.000316 µM", "value": 3.1, "unit": "%"}, {"measurement": "viability, T/C", "setting": "second compound 0.316 µM, first compound 0.001 µM", "value": 3.37, "unit": "%"}, {"measurement": "viability, T/C", "setting": "[8]", "value": 3.42, "unit": "%"}, {"measurement": "viability, T/C", "setting": "[9]", "value": 3.57, "unit": "%"}, {"measurement": "viability, T/C", "setting": "[10]", "value": 2.58, "unit": "%"}, {"measurement": "viability, T/C", "setting": "[11]", "value": 4.61, "unit": "%"}, {"measurement": "viability, T/C", "setting": "second compound 1 µM, first compound 0.000316 µM", "value": 2.27, "unit": "%"}, {"measurement": "viability, T/C", "setting": "second compound 1 µM, first compound 0.001 µM", "value": 4.58, "unit": "%"}, {"measurement": "viability, T/C", "setting": "[12]", "value": 3.37, "unit": "%"}, {"measurement": "viability, T/C", "setting": "[13]", "value": 3, "unit": "%"}, {"measurement": "viability, T/C", "setting": "[14]", "value": 3.76, "unit": "%"}, {"measurement": "viability, T/C", "setting": "[15]", "value": 5.53, "unit": "%"}]}, {"smiles": "O=C(c1ccc(F)c(F)c1Nc1ccc(I)cc1F)N1CC(O)([C@@H]2CCCCN2)C1", "note": "+ Cc1c(S(C)(=O)=O)c(-c2cc(F)cc(N3CCN(c4ccc(NS(=O)(=O)c5ccc(NC(CCN6CCC(C(=O)OCCCP(=O)(O)O)CC6)CSc6ccccc6)c(S(=O)(=O)C(F)(F)F)c5)cc4)CC3)c2)c(-c2ccc(Cl)cc2)n1C(C)C", "values": [{"measurement": "IC50", "setting": "[1]", "value": "> 1", "unit": "µM"}, {"measurement": "IC50", "setting": "[2]", "value": "> 1", "unit": "µM"}, {"measurement": "IC50", "setting": "[3]", "value": "> 1", "unit": "µM"}, {"measurement": "IC50", "setting": "curve of first compound, second compound 3.16 µM", "value": "> 1", "unit": "µM"}, {"measurement": "IC50", "setting": "curve of first compound, second compound 10 µM", "value": "> 1", "unit": "µM"}, {"measurement": "viability, T/C", "setting": "[4]", "value": 103, "unit": "%"}, {"measurement": "viability, T/C", "setting": "[5]", "value": 104, "unit": "%"}, {"measurement": "viability, T/C", "setting": "[6]", "value": 108, "unit": "%"}, {"measurement": "viability, T/C", "setting": "[7]", "value": 102, "unit": "%"}, {"measurement": "viability, T/C", "setting": "second compound 0.1 µM, first compound 0.316 µM", "value": 117, "unit": "%"}, {"measurement": "viability, T/C", "setting": "second compound 0.1 µM, first compound 1 µM", "value": 125, "unit": "%"}, {"measurement": "viability, T/C", "setting": "[8]", "value": 99, "unit": "%"}, {"measurement": "viability, T/C", "setting": "[9]", "value": 96.1, "unit": "%"}, {"measurement": "viability, T/C", "setting": "[10]", "value": 88.6, "unit": "%"}, {"measurement": "viability, T/C", "setting": "[11]", "value": 97.4, "unit": "%"}, {"measurement": "viability, T/C", "setting": "second compound 0.316 µM, first compound 0.316 µM", "value": 105, "unit": "%"}, {"measurement": "viability, T/C", "setting": "second compound 0.316 µM, first compound 1 µM", "value": 117, "unit": "%"}, {"measurement": "viability, T/C", "setting": "[12]", "value": 84.9, "unit": "%"}, {"measurement": "viability, T/C", "setting": "[13]", "value": 89.1, "unit": "%"}, {"measurement": "viability, T/C", "setting": "[14]", "value": 93.9, "unit": "%"}, {"measurement": "viability, T/C", "setting": "[15]", "value": 106, "unit": "%"}, {"measurement": "viability, T/C", "setting": "second compound 1 µM, first compound 0.316 µM", "value": 108, "unit": "%"}, {"measurement": "viability, T/C", "setting": "second compound 1 µM, first compound 1 µM", "value": 117, "unit": "%"}, {"measurement": "viability, T/C", "setting": "second compound 3.16 µM, first compound 0.00316 µM", "value": 79.8, "unit": "%"}, {"measurement": "viability, T/C", "setting": "second compound 3.16 µM, first compound 0.01 µM", "value": 87.3, "unit": "%"}, {"measurement": "viability, T/C", "setting": "second compound 3.16 µM, first compound 0.0316 µM", "value": 87.8, "unit": "%"}, {"measurement": "viability, T/C", "setting": "second compound 3.16 µM, first compound 0.1 µM", "value": 85.4, "unit": "%"}, {"measurement": "viability, T/C", "setting": "second compound 3.16 µM, first compound 0.316 µM", "value": 102, "unit": "%"}, {"measurement": "viability, T/C", "setting": "second compound 3.16 µM, first compound 1 µM", "value": 106, "unit": "%"}, {"measurement": "viability, T/C", "setting": "second compound 10 µM, first compound 0.00316 µM", "value": 74.5, "unit": "%"}, {"measurement": "viability, T/C", "setting": "second compound 10 µM, first compound 0.01 µM", "value": 85.8, "unit": "%"}, {"measurement": "viability, T/C", "setting": "second compound 10 µM, first compound 0.0316 µM", "value": 81.2, "unit": "%"}, {"measurement": "viability, T/C", "setting": "second compound 10 µM, first compound 0.1 µM", "value": 83, "unit": "%"}, {"measurement": "viability, T/C", "setting": "second compound 10 µM, first compound 0.316 µM", "value": 90.6, "unit": "%"}, {"measurement": "viability, T/C", "setting": "second compound 10 µM, first compound 1 µM", "value": 97, "unit": "%"}]}, {"smiles": "Cn1ncnc1[C@H]1c2n[nH]c(=O)c3cc(F)cc(c23)N[C@@H]1c1ccc(F)cc1", "values": [{"measurement": "viability, T/C", "setting": "compound 0.000316 µM", "value": "97.9% and 107% and 106%"}, {"measurement": "viability, T/C", "setting": "compound 0.001 µM", "value": "104% and 97.1% and 99.2%"}, {"measurement": "viability, T/C", "setting": "compound 0.00316 µM", "value": "99.5% and 100% and 104%"}, {"measurement": "viability, T/C", "setting": "compound 0.01 µM", "value": "104% and 102% and 98%"}, {"measurement": "viability, T/C", "setting": "compound 0.0316 µM", "value": "100% (2×) and 96.9%"}, {"measurement": "viability, T/C", "setting": "compound 0.1 µM", "value": "98.8% and 96% and 88.3%"}, {"measurement": "IC50", "setting": "curve of compound", "value": "> 0.1", "unit": "µM"}]}]}
